Measured values: patent US20220401450A1, “PEDIATRIC FORMULATIONS FOR TREATMENT OF CANCER” (CELGENE CORPORATION, priority 2019, published 2022)
Peptide text beside a SMILES is read from it.

Experiment: Accelerated stability study of blends: chemical compatibility of sweeteners with Compound 1B (assay potency)
Assay type: physicochemical
Procedure: The chemical compatibility between these excipients and Compound 1B was evaluated through an accelerated stability study. The formulation samples were prepared as blends, then stored at 25° C./60% RH and 40° C./75% RH for up to four weeks.
Chemical stability of the blends was evaluated both in the presence and absence of high-intensity sweeteners, and the results are summarized in Table 2.

Chemical stability (compatibility with Compound 1B)	SMILES
Compatible	CC1=CC(=O)[N-]S(=O)(=O)O1.[K+] [Acesulfame-K]
Compatible	COC(=O)[C@H](Cc1ccccc1)NC(=O)[C@@H](N)CC(=O)O [Aspartame] (H-Asp-Phe-OMe)
Incompatible	O=C1NS(=O)(=O)c2ccccc21 [Saccharin]
Compatible	OC[C@H]1O[C@H](O[C@]2(CCl)O[C@H](CCl)[C@@H](O)[C@@H]2O)[C@H](O)[C@@H](O)[C@H]1Cl [Sucralose]
